Holding throughout (type): cell-based, human
The subject of one data set is KRAS 35G>T mutant G12V. As to the kind of experiment: Indel frequencies at the endogenous target sequences (T7E1 / deep sequencing) after ADGN/Cas9 mRNA/gRNA transfection. The following applies: for indel editing and disruption of G12V mutant KRAS (FIG. 1A): SW403, SW480 vs wild type KRAS HT29 cells, T7E1; for indel frequencies: deep sequencing, 72 hours after transfection, Cas9 mRNA 0.15 μg, gRNA 0.2 μg, ADGN-100. On the procedure: (§1) Complex formation with mRNA:gRNA: ADGN peptide/mRNA/gRNA particles were prepared at a 20:1:1 molar ratio. ADGN/Cas9mRNA/sgRNA complexes were prepared at a 20/1/1 molar ratio with 0.5 μg mRNA: 1.5 μg sgRNA and 5% Glucose or DMEM (example for 96 well plates). […] Premixed Cas9 mRNA/gRNA were prepared in sterile water at room temperature in a glass vial (1-4 ml). ADGN-peptide solution was added dropwise (1 drop/sec) under magnetic agitation at 400 rpm to obtain a 1:2 ratio, and incubated for 30 min at room temperature or 37° C. Just before transfection, 150 μl Glucose or DMEM was added and the solution was mixed under magnetic agitation at 400 rpm for 1 minute. Then the solution was incubated for 5 min at 37° C. Then the complexes was ready for cell transfection or IV administration. Prior to IV administration, complexes were diluted in sucrose 5% solution.
(§2) Transfection protocol. The following protocols are reported for 24/48/96 well plate format transfection. Cells should be trypsinized and seeded a day prior transfection Cells were cultured in Dulbecco's Modified Eagle's Medium (DMEM), supplemented with 2 mM glutamine, 1% antibiotics (streptomycin 10,000 μg/mL, penicillin, 10,000 IU/mL) and 10% (w/v) foetal calf serum (FCS), at 37° C. in a humidified atmosphere containing 5% CO2. 96 well plates seeded with 50,000 cells, the day prior transfection, grown to 60-80% confluence and set up to be at around 70% confluence at the day of transfection. Before transfection, cells are washed twice with DMEM (without FBS and pen/strep) (100 μl/well). Cells were then overlaid with 25 μl of complex solution, mixed gently and incubated for 10 min at 37° C.+5% CO2. 50 μl of fresh DMEM (without FBS and Antibiotics) was added and cells were incubated for 2 h at 37° C.+5% CO2 (time of exposure can be adjusted based on sensitivity of the cells). 250 μL of DMEM (containing 10% FCS and 1% antibiotics) were then added without removing the overlay of ADGN peptide/mRNA complexes. Cells were returned to the incubator (37° C., 5% CO2) and analyzed 48 hours to 72 hours post transfection.
(§3) Nine different gRNAs targeting KRAS 35G>T mutant G12V (gRNA35T1, gRNA35T2, gRNA35T3, gRNA35T4, gRNA35T5, gRNA35T6, gRNA35T7, gRNA35T8 and gRNA35T9 (see FIG. 18)) were evaluated on SW403 and SW480 cancer cells harboring G12V KRAS mutation. Cas9 mRNA (0.15 μg) and gRNA (0.2 μg) were associated with ADGN-peptides as reported in experimental procedure. SW403, SW480 and HT-29 cells were cultured in 48 well plate format and treated with free mRNACas9-gRNA, or ADGN-100/mRNACas9:gRNA complex. Indel frequencies at the endogenous target sequences was evaluated 72 hours after transfection by either T7E1 method and by deep sequencing. Cell proliferation was analyzed over a period of 5 days using CellTiter Glow kits on GlowMax (Promega).
(§4) In order to confirm the specificity of sgRNAs targeting G12V, G12C or G12D KRAS mutation, gRNA35T3 targeting G12V, gRNA34T6 targeting G12C, and gRNA35A5 targeting G12D were evaluated on a large panel of cancer cells harboring different KRAS mutations including SW403, SW480, PANC1, PK-45H, PK-1, MIA-PACA, H23, H358, HT-29, HS-68 and LS513. Cas9 mRNA (0.2 μg) and gRNA (0.4 μg) were associated with ADGN peptide at molar ratio 20/1 (peptide/nucleic acid). Cells were cultured in 48 well plate format and treated with free mRNACas9-gRNA, or ADGN/mRNACas9:gRNA complex. Indel frequencies at the endogenous target sequences was evaluated 72 hours after transfection by either T7E1 method and cell proliferation was analyzed over a period of 5 days using CellTiter Glow kits on GlowMax (Promega).

A further data set relates to SW403 and SW480 cells. Description: Cell proliferation over 5 days (CellTiter Glow). The following applies: SW480 and SW403 cells vs HT29 cells harboring KRAS WT. On the procedure:
as §2, §3
(In general: In ATP-based viability assays light output follows the ATP content of the culture.)

For a further data set, the system named is KRAS 35G>A mutant G12D. As to the kind of experiment: Indel frequencies at the endogenous target sequences (T7E1 / deep sequencing) after ADGN/Cas9 mRNA/gRNA transfection. The following applies: for disruption of G12D mutant KRAS (FIG. 2A): G12D cancer cells vs wild type KRAS cells (HT29 or HS-68); for indel frequencies: deep sequencing, 72 hours after transfection, Cas9 mRNA 0.1 μg, gRNA 0.2 μg. As to the method:
as §1, §2
(§5) Nine different gRNAs targeting KRAS 35G>A mutant G12D (gRNA35A1, gRNA35A2, gRNA35A3, gRNA35A4, gRNA35A5, gRNA35A6; gRNA35A7, gRNA35A8, gRNA35A9) were evaluated on LS513, Panc1, PK-45H, and PK1 cancer cells harboring G12D KRAS mutation. Cas9 mRNA (0.1 μg) and gRNA (0.2 μg) were associated with ADGN-peptide at molar ratio 20/1 (peptide/nucleic acid). LS513, Panc1, PK-45H, PK1, HS-68 and HT-29 cells were cultured in 48 well plate format and treated with free mRNACas9-gRNA, or ADGN/mRNACas9:gRNA complex. Indel frequencies at the endogenous target sequences was evaluated 72 hours after transfection by either T7E1 method or deep sequencing. Cell proliferation was analyzed over a period of 5 days using CellTiter Glow kits on GlowMax (Promega).
as §4

The test system of a further data set is wild type KRAS. The data set is described as above. The following applies: for indel frequencies: deep sequencing, 72 hours after transfection, Cas9 mRNA 0.1 μg, gRNA 0.2 μg. As to the method:
as §1, §2, §3, §5

Data set [1] deals with PANC1, PK1, LS513 and PK-45H cells. As to the kind of experiment: Cell proliferation over 5 days (CellTiter Glow). The following applies: PANC1, PK1, LS513, PK-45H vs HT29 or HS-68 cells harboring KRAS WT. On the procedure:
as §2, §5

Another data set deals with KRAS 34G>T mutant G12C. As to the kind of experiment: Indel frequencies at the endogenous target sequences (T7E1 / deep sequencing) after ADGN/Cas9 mRNA/gRNA transfection. The following applies: for indel frequencies: deep sequencing, 72 hours after transfection, Cas9 mRNA 0.1 μg, gRNA 0.2 μg. On the procedure:
as §1, §2
(§6) Eight different gRNAs targeting KRAS 34G>T mutant G12C (gRNA34T1, gRNA34T2, gRNA34T3, gRNA34T4, gRNA34T5, gRNA34T6, gRNA34T7 and gRNA34T8) were evaluated on MIA-PACA, H23, H358, H29 and PANC1 cells. Cas9 mRNA (0.1 μg) and gRNA (0.2 μg) were associated with ADGN peptide at molar ratio 20/1 (peptide/nucleic acid). MIA-PACA, H23, H358, PANC1 and HT29 cells were cultured in 48 well plate format and treated with free mRNACas9-gRNA, or ADGN/mRNACas9:gRNA complex. Indel frequencies at the endogenous target sequences was evaluated 72 hours after transfection by either T7E1 method or deep sequencing. Cell proliferation was analyzed over a period of 5 days using CellTiter Glow kits on GlowMax (Promega).
as §4

The test system of data set [2] is Mia-PACA, H23 and H358 cells. As to the kind of experiment: Cell proliferation over 5 days (CellTiter Glow). The following applies: Mia-PACA, H23, H358 vs KRAS WT HT29 or HS-68 and PANC1 cells. As to the method: as §2, §6
[3] abbreviates: SW403 cells (heterozygous 35G>T).

“TGGTAGTTGGAGCTGTTGGCGT (guide TGGTAGTTGGAGCTGTTGGCGT; chemistry not given here) [gRNA35T1, sgRNA target KRAS G12V mutation (c.35G>T); PAM AGG]”: the “indel editing and disruption of G12V mutant KRAS (FIG. 1A)” value (shortened to “indel editing and disruption … (FIG. 1A)”) in the data set with KRAS 35G>T mutant G12V was “specifically induced indel editing and efficient disruption”. In addition, the indel frequencies in the data set with KRAS 35G>T mutant G12V (setting [3]) is listed as 35%; in the data set on KRAS 35G>T mutant G12V (SW480 cells (homozygous 35G>T)) it was 57%. Also, the “inhibition of proliferation or survival (FIG. 1B)” value (from here on “inhibition … (FIG. 1B)”) in the data set on SW403 and SW480 cells was “specifically inhibit proliferation or survival of SW480 and SW403 cells”.
On to “GTT GGA GCT GTT GGC GT (guide GTTGGAGCTGTTGGCGT; chemistry not given here) [gRNA35T6, sgRNA target KRAS G12V mutation (c.35G>T); PAM AGG]”, for which the “indel editing and disruption … (FIG. 1A)” value in the data set on KRAS 35G>T mutant G12V was “specifically induced indel editing and efficient disruption”. The values for the indel frequencies in the data set with KRAS 35G>T mutant G12V (setting [3]) and in the data set on KRAS 35G>T mutant G12V (SW480 cells (homozygous 35G>T)) were 18% and 39%, respectively. Moreover, the “inhibition … (FIG. 1B)” value in the data set on SW403 and SW480 cells was “specifically inhibit proliferation or survival of SW480 and SW403 cells”.
Take “GGTAGTTGGAGCTGATGGCG (guide GGTAGTTGGAGCTGATGGCG; chemistry not given here) [gRNA35A2, sgRNA target KRAS G12D mutation (35G>A); PAM TAG]”: in the data set with KRAS 35G>A mutant G12D, the “disruption of G12D mutant KRAS (FIG. 2A)” value is “induced efficient disruption of G12D mutant KRAS”. Also, the indel frequencies with KRAS 35G>A mutant G12D (LS513 cells) amounted to 31 ± 2%; in the data set on KRAS 35G>A mutant G12D (PANC1 cells), 58 ± 4%; with KRAS 35G>A mutant G12D (PK1 cells), 48 ± 2%; with KRAS 35G>A mutant G12D (PK-45H cells), 52 ± 5%; with wild type KRAS (HS68 cells (WT KRAS)), 6 ± 2%; in the data set on wild type KRAS (HT-29 cells (WT KRAS)), 2 ± 1%. Moreover, the “inhibition of proliferation or survival (FIG. 2B)” value (“inhibition … (FIG. 2B)” for short) in data set [1] is “specifically inhibit proliferation or survival of PANC1, PK1, LS513 and PK-45H cells”.
As to “GTT GGA GCT TGT GGC GT (guide GTTGGAGCTTGTGGCGT; chemistry not given here) [gRNA34T3, sgRNA target KRAS G12C mutation (34G>T); PAM AGG]”, the indel frequencies amounted to 48% in the data set with KRAS 34G>T mutant G12C (H23 cells), 37% in the data set with KRAS 34G>T mutant G12C (H358 cells) and 51% in the data set with KRAS 34G>T mutant G12C (Mia-PACA cells). For the same sequence, the “indel editing and disruption of G12C mutant KRAS (FIG. 3A)” value with KRAS 34G>T mutant G12C (Mia-PACA, H23, H358 vs HT29 and PANC1 cells) is “induced indel editing and efficient disruption of G12C mutant KRAS”. Moreover, the “inhibition of proliferation or survival (FIG. 3B)” value in data set [2] was “specifically inhibit proliferation or survival of Mia-PACA, H23 and H358 cells”.
For “GTT GGA GCT GAT GGC GT (guide GTTGGAGCTGATGGCGT; chemistry not given here) [gRNA35A6, sgRNA target KRAS G12D mutation (35G>A); PAM AGG]”, in the data set with KRAS 35G>A mutant G12D, the “disruption of G12D mutant KRAS (FIG. 2A)” value was “induced efficient disruption of G12D mutant KRAS”. The indel frequencies was determined as 32 ± 5% with KRAS 35G>A mutant G12D (LS513 cells); 60 ± 2% with KRAS 35G>A mutant G12D (PANC1 cells); 37 ± 0.4% in the data set on KRAS 35G>A mutant G12D (PK1 cells); 48 ± 1% with KRAS 35G>A mutant G12D (PK-45H cells); 2 ± 1% in the data set on wild type KRAS (HS68 cells (WT KRAS)); 5 ± 1% in the data set on wild type KRAS (HT-29 cells (WT KRAS)). For the same sequence, the “inhibition … (FIG. 2B)” value in data set [1] is “specifically inhibit proliferation or survival of PANC1, PK1, LS513 and PK-45H cells”.
Regarding “GTAGTTGGAGCTGTTGGCGT (guide GTAGTTGGAGCTGTTGGCGT; chemistry not given here) [gRNA35T8, sgRNA target KRAS G12V mutation (c.35G>T); PAM AGG]”, the “indel editing and disruption … (FIG. 1A)” value with KRAS 35G>T mutant G12V was “specifically induced indel editing and efficient disruption”. For the same sequence, the indel frequencies is 40% in the data set with KRAS 35G>T mutant G12V (setting [3]) and 51% in the data set with KRAS 35G>T mutant G12V (SW480 cells (homozygous 35G>T)). Further, the “inhibition … (FIG. 1B)” value with SW403 and SW480 cells is “specifically inhibit proliferation or survival of SW480 and SW403 cells”.
For the sequence “CTTGTGGTAGTTGGAGCTGA (guide CTTGTGGTAGTTGGAGCTGA; chemistry not given here) [gRNA35A1, sgRNA target KRAS G12D mutation (35G>A); PAM TGG]”, the indel frequencies in the data set with KRAS 35G>A mutant G12D (LS513 cells) turned out to be 17 ± 2%; in the data set on KRAS 35G>A mutant G12D (PANC1 cells), 32 ± 2%; in the data set with KRAS 35G>A mutant G12D (PK1 cells), 12 ± 1%; in the data set with KRAS 35G>A mutant G12D (PK-45H cells), 15 ± 0.8%; with wild type KRAS (HS68 cells (WT KRAS)), 8 ± 1%; in the data set on wild type KRAS (HT-29 cells (WT KRAS)), 10 ± 1%. Moreover, the “effect on wild type KRAS cells” value in the data set with wild type KRAS (HT-29 and HS-68 cells) is “also affected wild type KRAS cells”. Moreover, the “inhibition … (FIG. 2B)” value in data set [1] is “specifically inhibit proliferation or survival of PANC1, PK1, LS513 and PK-45H cells”.

For the origin of these results see patent US20230167437A1, “COMPOSITIONS FOR TREATING CANCER WITH KRAS MUTATIONS AND USES THEREOF” (Aadigen, LLC, priority 2020, published 2023).
